ChEMBL document CHEMBL3351469, “Structure-activity relationships (SAR) and structure-kinetic relationships (SKR) of bicyclic heteroaromatic acetic acids as potent CRTh2 antagonists III: the role of a hydrogen-bond acceptor in long receptor residence times” (Bioorg Med Chem Lett, 2014)

Experiments:
[1] = molecular target: T1, Prostaglandin D2 receptor 2 (Homo sapiens, UniProt Q9Y5Y4); experiment: Antagonist activity at CRTh2 (unknown origin) stably expressed in PGD2-stimulated CHO.K1 cells preincubated for 1 hr by radio-labelled [35S]-GTPgammaS binding assay; format: functional, cell-based
T1 sequence (Q9Y5Y4 whole entry): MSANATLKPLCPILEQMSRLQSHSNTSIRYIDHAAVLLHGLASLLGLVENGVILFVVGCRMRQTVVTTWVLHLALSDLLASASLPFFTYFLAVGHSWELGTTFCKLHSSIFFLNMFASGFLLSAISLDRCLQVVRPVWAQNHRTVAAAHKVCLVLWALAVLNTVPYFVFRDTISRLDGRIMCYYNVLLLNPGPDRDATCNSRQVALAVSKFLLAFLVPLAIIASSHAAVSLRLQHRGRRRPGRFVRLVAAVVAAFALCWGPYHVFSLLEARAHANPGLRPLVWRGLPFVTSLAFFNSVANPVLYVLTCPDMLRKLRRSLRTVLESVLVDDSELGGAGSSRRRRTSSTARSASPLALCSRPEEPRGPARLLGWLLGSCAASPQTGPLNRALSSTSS

[2] = molecular target: T2, Prostaglandin D2 receptor 2 (Homo sapiens) (UniProt Q9Y5Y4); details: CHO.K1
T2 sequence (whole entry): T1 sequence (Q9Y5Y4 whole entry)
Description: Antagonist activity at CRTh2 (unknown origin) stably expressed in PGD2-stimulated CHO.K1 cells assessed as dissociation half-life at 10 times IC50 after 1 hr preincubation by radio-labelled [35S]-GTPgammaS binding assay

[3] = molecular target: T2, Prostaglandin D2 receptor 2 (Homo sapiens); experiment: Antagonist activity at CRTh2 (unknown origin) stably expressed in PGD2-stimulated CHO.K1 cells assessed as dissociation half-life at 10 times IC50 after 1 hr preincubation measured at 28 hrs after washout by radio-labelled [35S]-GTPgammaS binding assay; format: functional, cell-based

Compound | IC50 ([1]; read-out: IC50) [nM] | T1/2 [2] [h] | IC50 ([1]; cho.k1) | T1/2 [3] [h]
Cc1ccc2c(CC(=O)O)cn(-c3ccc(C(F)(F)F)cc3Cc3c(C4CC4)noc3C3CC3)c2n1 | 3 | 23 |  | 
Cc1ccc(-n2cc(CC(=O)O)c3ccc(C)nc32)c(Cc2ccnn2Cc2ccccc2)c1 | 1000 |  |  | 
Cc1ccc2c(CC(=O)O)cc(-c3ccc(C(F)(F)F)cc3Cc3c(C)noc3C3CC3)n2n1 | 3 | 14 |  | 
Cc1nnc(C2CC2)n1Cc1cc(C(F)(F)F)ccc1-c1cn(CC(=O)O)c2ccc(F)cc12 | 6 | 20 |  | 
Cc1cn(Cc2ccccc2-n2cc(CC(=O)O)c3ccc(C)nc32)c(C)n1 |  |  | Not Active | 
Cc1c(-c2cccc3c2CCN(S(C)(=O)=O)C3)c2cc(F)ccc2n1CC(=O)O | 4 | 1.7 |  | 
Cc1ccc(-n2cc(CC(=O)O)c3ccc(C)nc32)c(Cc2c(C)cnn2CC2CC2)c1 | 4 | 10 |  | 
CCN(Cc1cc(C(F)(F)F)ccc1-c1cc(CC(=O)O)ccc1OC)C(=O)C1CC1 | 14 | 2 |  | 
COc1ccc(CC(=O)O)cc1-c1ccc(C(F)(F)F)cc1Cn1ccccc1=O |  |  | Not Active | 
Cc1noc(C2CC2)c1Cc1cc(C(F)(F)F)ccc1-c1cn(CC(=O)O)c2ccc(C(F)(F)F)nc12 | 23 | 25 |  | 
Cc1ccc2c(CC(=O)O)cn(-c3ccc(Cl)cc3Cc3c(C)noc3Cc3ccccc3)c2n1 | 3 |  |  | 45
CCCc1nc2ccccc2n1Cc1ccccc1-n1cc(CC(=O)O)c2ccc(C)nc21 | 51 | 0.6 |  | 
Cc1ccc2c(CC(=O)O)cn(-c3ccc(Cl)cc3Cn3c(C)nnc3C3CC3)c2n1 | 56 | 20 |  | 
Cc1ccc(-n2cc(CC(=O)O)c3ccc(C)nc32)c(Cn2c(C)nnc2C)c1 | 16 | 9 |  | 
Cc1ccc2c(CC(=O)O)cn(-c3ccccc3Cn3nc(C)nc3C)c2n1 |  |  | Not Active | 
Cc1ccc(-n2cc(CC(=O)O)c3ccc(C)nc32)c(Cn2ccnc2-c2ccccc2)c1 | 30 | 1.2 |  | 
Cc1ccc2c(CC(=O)O)cn(-c3ccc(F)cc3Cc3c(C)cnn3C)c2n1 | 10 | 1.2 |  | 
Cc1ccc(-n2cc(CC(=O)O)c3ccc(C)nc32)c(Cn2nncc2C)c1 | 150 |  |  | 
Cc1ccc2c(CC(=O)O)cn(-c3ccc(F)cc3Cc3c(C)noc3C3CC3)c2n1 | 2 | 6 |  | 
O=C(O)Cn1cc(-c2ccc(C(F)(F)F)cc2Cc2ocnc2C2CC2)c2cc(F)ccc21 | 2600 |  |  | 
Cc1ccc2c(CC(=O)O)cn(-c3ccc(Cl)cc3Cn3c(C)nnc3CCc3ccccc3)c2n1 | 9 | 26 |  | 
Cc1ccc2c(CC(=O)O)cn(-c3ccccc3Cn3ccnn3)c2n1 | 1800 |  |  | 
Cc1noc(C2CC2)c1Cc1cc(C(F)(F)F)ccc1-c1cn(CC(=O)O)c2ccc(F)cc12 | 37 | 8 |  | 

Compound | IC50 ([1]; read-out: IC50) [nM] | T1/2 [2] [h] | IC50 ([1]; cho.k1) | T1/2 [3] [h]
Cc1ccc(-n2cc(CC(=O)O)c3ccc(C)nc32)c(Cn2ccnc2C)c1 | 250 |  |  | 
Cc1ccc2c(CC(=O)O)cn(-c3ccc(Cl)cc3Cn3c(C)nnc3Cc3ccccc3)c2n1 | 11 | 26 |  | 
CCN(Cc1cc(C(=O)NCCc2ccccc2)ccc1-n1cc(CC(=O)O)c2ccc(C)nc21)C(=O)C1CC1 | 8 | 11 |  | 
Cc1ccc2c(CC(=O)O)cn(-c3ccc(Cl)cc3Cc3cc(C)nn3C)c2n1 |  |  | Not Active | 
Cc1cnn(C)c1Cc1cc(C(F)(F)F)ccc1-c1cn(CC(=O)O)c2ccc(F)cc12 | 64 | 2.5 |  | 
Cc1ccc2c(CC(=O)O)cn(-c3ccc(Cl)cc3Cc3c(C4CC4)noc3C3CC3)c2n1 | 6 | 22 |  | 
Cc1ccc2c(CC(=O)O)cn(-c3ccc(Cl)cc3Cc3cncnc3)c2n1 | 1400 |  |  | 
Cc1ccc2c(CC(=O)O)cn(-c3ccc(C(F)(F)F)cc3Cc3c(C)noc3C3CC3)c2n1 | 1 | 13 |  | 
Cc1ccc2c(CC(=O)O)cn(-c3ccccc3Cn3ccnc3)c2n1 | 580 |  |  | 
Cc1ccc(-n2cc(CC(=O)O)c3ccc(Cc4ccccc4)nc32)c(Cn2c(C)nnc2C)c1 | 7 | 20 |  | 
Cc1ccn2c(CC(=O)O)cc(-c3ccc(C(F)(F)F)cc3Cc3c(C)noc3C3CC3)c2n1 | 5 | 12 |  | 
Cc1ccc2c(CC(=O)O)cn(-c3ccc(C(F)(F)F)cc3CSC(C)(C)C)c2n1 |  |  | Not Active | 
Cc1nnc(C2CC2)n1Cc1cc(C(F)(F)F)ccc1-n1cc(CC(=O)O)c2ccc(F)cc21 | 9 | 16 |  | 
COc1ccc(CC(=O)O)cc1-c1ccc(C(F)(F)F)cc1Cn1c(C)nnc1C1CC1 | 27 | 1.5 |  | 
Cc1noc(C2CC2)c1Cc1cc(Cl)ccc1-n1cc(CC(=O)O)c2ccc(Cc3ccccc3)nc21 | 7 |  |  | 42
Cc1noc(C)c1Cc1cc(C(F)(F)F)ccc1-c1cn(CC(=O)O)c2ccc(F)cc12 | 20 | 10 |  | 
Cc1ccc2c(n1)c(-c1ccc(C(F)(F)F)cc1Cc1c(C)noc1C)cn2CC(=O)O | 5 | 5 |  | 
Cc1ccc2c(CC(=O)O)cn(-c3ccc(F)cc3Cc3c(C)noc3C)c2n1 | 2 | 3 |  | 
Cc1ccc2c(CC(=O)O)cn(-c3ccc(Cl)cc3Cc3cncnc3C(C)C)c2n1 | 170 |  |  | 
Cc1noc(C)c1-c1cccc(-c2c(C)n(CC(=O)O)c3ccc(F)cc23)c1 | 6 | 18 |  | 
CCN(Cc1cc(C(F)(F)F)ccc1-n1cc(CC(=O)O)c2ccc(C)nc21)C(C)=O | 10 | 6 |  | 
Cc1noc(C2CC2)c1Cc1cc(F)ccc1-c1cn(CC(=O)O)c2ccc(C(F)(F)F)cc12 | 37 | 27 |  | 
